Consider two compounds from ChEMBL document CHEMBL1159274, “Spiganthine, the cardioactive principle of Spigelia anthelmia” (J Nat Prod, 1995).

Assay [1] in a line: (§1) Induction of delay in contraction development in electrically-stimulated guinea pig heart ventricular papillary muscle at contraction frequency of 1 Hz. Particulars: Cavia porcellus, Muscle tissue. It is filed as functional, tissue-based.
For the next assay, the species on record is Cavia porcellus. The description is as §1. It is filed as functional, tissue-based. Conditions: Muscle tissue.

With `CC(C)[C@@]1(O)[C@@H](OC(=O)c2cc[nH]c2)[C@@]2(O)[C@]3(C)C[C@@]4(O)O[C@@]5([C@H](O)[C@@H](C)CC[C@]35O)[C@@]2(O)[C@@]41C` [RYANODINE], the minimal effective concentration in assay [1] (read-out: MEC) came to 0.0165 µM.

In turn, `CC(C)[C@@]1(O)[C@@H](OC(=O)c2cc[nH]c2)[C@@]2(O)[C@@]3(CO)C[C@]4(O)O[C@@]5([C@H](O)[C@@H](C)CC[C@]35O)[C@@]2(O)[C@]14C` [SPIGANTHINE] had an EC50 in assay [1] of 60 nM. For the same compound, the Activity result in the assay filed under Cavia porcellus was “Dose-dependent effect”.
